Data set [1] concerns thrombocytes. Put plainly: ADP-induced aggregation of thrombocytes after intravenous administration (in vivo). Also on record: species or system rabbit. The protocol:
The experiments were carried out on male rabbits of the “Chinchilla” breed having a mass of 2.7±0.3 kg. 18-24 hours prior to the experiment they were deprived of feed while preserving free access to water.
To obtain plasma enriched with thrombocytes, blood was taken from a cut of a marginal vein of the rabbit ear, the sample was stabilized with 3.8% of sodium citrate solution in a ratio of 9:1 and centrifuged at 200 g (1000 rev/min) for 10 minutes. The top supernatant layer enriched with thrombocytes was transferred by an automatic dropper into a silicone test tube and kept at 37° C. The plasma enriched with thrombocytes contained, on the average, […]. If this content exceeded the specified 3×10^8 blood platelets in 1 liter, this sample was diluted to the necessary concentration with plasma deprived of thrombocytes, which was obtained by centrifuging blood at 650 g during 10 minutes.
The measurements of the optical density of the samples were made on two-channel aggregometer of the “Chronolog” Company (USA). A flask containing 490 mkl of plasma rich with thrombocytes was placed in a device, into which a magnetic agitator covered with Teflon was lowered. The index of maximum amplitude of aggregation (MA) in percent of a fall of the plasma optical density under effect of the aggregation inductor was recorded. The control index MA of plasma was compared with the MA of plasma incubated for 3 minutes with different concentrations of the compounds: from 10^−3 to 10^−7 in vitro experiments or with plasma obtained 15, 30, 60 and 120 minutes after intravenous administration of different doses of the compounds in vivo experiments.
The process of aggregation of thrombocytes was recorded with the help of a computer; on the monitor screen the there were depicted curves reflecting changes of the optical density of the plasma enriched which was taken as a standard 100% compared to the optical density of the non-thrombocyte plasma taken for 0% content of thrombocytes.
The antiaggregative capability of compounds 2, 15, 21, 37, according to the invention was tested in experiments in vivo. Introduced to the test animals intravenously were an aggregation inductor ADP at a concentration of 10^−5 M was and then the compounds according to the invention. The doses of the compounds were in a range from 15 to 60 mg/kg.
For leveling the different effects of the compounds in different days due the ambient temperature, humidity and other parameters, 2 animals of each series were taken for experiments every day. Under “series” there is understood a group of 6 animals used for studying one of the doses of the compounds.
The blood for obtaining plasma enriched with thrombocytes was taken from marginal vein of the rabbit ear: in the control group—directly before introducing the tested compounds; in investigated groups—15 minutes after introducing these compounds and then after 30, 60, 120 minutes and so on up to the moment when the effect of suppression of aggregation disappeared.
The quantity of thrombocytes was counted before the experiment and at the end thereof in each plasma sample.

A short description of data set [2]: Electrochemical activity: polarographic reduction on mercury dripping electrode. The format is physicochemical. As to conditions: for number of electrons participating in the reduction reaction: calculated with Geirovsky-Ilkovich equation; for i: 2.0% sodium chloride background, 9·10^−4 M; for i / −E1/2: 37° C., forward trace, average for the group of compounds; for −E1/2: vs SCE; for half-wave potential more positive at reverse stroke compared to forward stroke: polarograms of reverse stroke.

[3] abbreviates: 15.0 mg/kg intravenously, after 15 minutes, control 50.1 ± 1.7.
The mark [4] stands for this setting: 15.0 mg/kg intravenously, after 30 minutes, control 50.1 ± 1.7.
The mark [5] stands for this setting: 15.0 mg/kg intravenously, after 60 minutes, control 50.1 ± 1.7.
Setting [6] is: 15.0 mg/kg intravenously, after 120 minutes, control 50.1 ± 1.7.
[7] abbreviates: 30.0 mg/kg intravenously, after 15 minutes, control 61.0 ± 1.3.
The mark [8] stands for this setting: 30.0 mg/kg intravenously, after 30 minutes, control 61.0 ± 1.3.
Where [9] appears, read: 30.0 mg/kg intravenously, after 60 minutes, control 61.0 ± 1.3.
[10] abbreviates: 30.0 mg/kg intravenously, after 120 minutes, control 61.0 ± 1.3.
[11] abbreviates: 60.0 mg/kg intravenously, after 15 minutes, control 48.6 ± 1.3.
The mark [12] stands for this setting: 60.0 mg/kg intravenously, after 30 minutes, control 48.6 ± 1.3.
Where [13] appears, read: 60.0 mg/kg intravenously, after 60 minutes, control 48.6 ± 1.3.
[14] abbreviates: 60.0 mg/kg intravenously, after 120 minutes, control 48.6 ± 1.3.

Consider `Nc1ccnc2c(=O)n([C@@H]3O[C@H](CO)[C@@H](O)[C@H]3O)[nH]c(=O)c12` [Compound 2, 4-amino-7-(β-D-ribofuranosile)pyrido[2,3-d]-6H-pyridazine-5,8-dione], for which the “MA - drop of optical density” value in data set [1] (setting [3]) was 44.2 ± 2.0 %; in data set [1] (setting [4]), 42.2 ± 1.6 %; in data set [1] (setting [5]), 46.9 ± 1.7 %; in data set [1] (setting [6]), 49.2 ± 2.0%; in data set [1] (setting [7]) it was 45.3 ± 2.0 %; in data set [1] (setting [8]) it was 43.7 ± 1.7 %. Besides, the “MA - drop of optical density” value in data set [1] (setting [9]) is recorded as 40.1 ± 2.2 %; in data set [1] (setting [10]), 59.7 ± 2.2%; in data set [1] (setting [11]), 45.2 ± 1.2 %; in data set [1] (setting [12]) it was 43.6 ± 2.0 %; in data set [1] (setting [13]), 47.8 ± 1.5%; in data set [1] (setting [14]), 48.0 ± 1.2%.

Consider `Nc1cccc2c(=O)[nH][nH]c(=O)c12.[Na]` [Compound 15, sodium salt of 5-amino-benzo[d]-3H-pyridazine-1,4-dione], for which, in data set [2], the “number of electrons participating in the reduction reaction” value (from here on “number … in the reduction reaction”) is 4.09. Further, the i is recorded as 0.23 ± 0.03 mkA in data set [2] (pH 7.0), 0.30 ± 0.01 mkA in data set [2] (pH 7.2), 0.29 ± 0.02 mkA in data set [2] (pH 7.4) and 0.31 ± 0.02 mkA in data set [2] (pH 7.6). The “−E1/2” value in data set [2] (pH 7.0) is given as 0.092 ± 0.02 V; in data set [2] (pH 7.2), 0.09 ± 0.01 V; in data set [2] (pH 7.4) it was 0.092 ± 0.02 V; in data set [2] (pH 7.6), 0.09 ± 0.01 V. Besides, the “half-wave potential more positive at reverse stroke compared to forward stroke” value in data set [2] was determined as 30.0 mV. Besides, the “MA - drop of optical density” value in data set [1] (setting [3]) is on record as 42.8 ± 1.8 %; in data set [1] (setting [4]) it was 41.8 ± 1.5 %; in data set [1] (setting [5]), 45.6 ± 1.5 %; in data set [1] (setting [6]) it was 48.3 ± 2.3 %; in data set [1] (setting [7]), 43.2 ± 2.2 %; in data set [1] (setting [8]), 41.8 ± 1.9 %. The “MA - drop of optical density” value stood at 37.8 ± 1.8 % in data set [1] (setting [9]); 58.1 ± 1.7% in data set [1] (setting [10]); 43.1 ± 1.5 % in data set [1] (setting [11]); 41.3 ± 1.5 % in data set [1] (setting [12]); 44.7 ± 0.8% in data set [1] (setting [13]); 47.2 ± 1.6% in data set [1] (setting [14]).

As to `Nc1cnc2c(=O)n([C@@H]3O[C@H](CO)[C@@H](O)[C@H]3O)[nH]c(=O)c2n1.[Na]` [Compound 21, sodium salt of 3-amino-7-(β-D-ribofuranosile)pyrazine[2,3-d]-6H-pyridazine-5,8-dione], the “MA - drop of optical density” value worked out at 43.5 ± 1.7 % in data set [1] (setting [3]); 43.3 ± 1.7 % in data set [1] (setting [4]); 46.7 ± 1.5 % in data set [1] (setting [5]); 49.1 ± 1.7% in data set [1] (setting [6]); 46.7 ± 1.9 % in data set [1] (setting [7]); 45.4 ± 1.8 % in data set [1] (setting [8]). Further, the “MA - drop of optical density” value was found to be 45.0 ± 1.9% in data set [1] (setting [9]); 60.3 ± 2.1% in data set [1] (setting [10]); 45.1 ± 0.9 % in data set [1] (setting [11]); 43.2 ± 2.0 % in data set [1] (setting [12]); 47.3 ± 1.6% in data set [1] (setting [13]); 48.3 ± 1.5% in data set [1] (setting [14]).

Turning to `O=c1[nH]n([C@@H]2O[C@H](CO)[C@@H](O)[C@H]2O)c(=O)c2nc(O)cnc12.[Na].[Na]` [Compound 23, disodium salt of 2-hydroxy-7-(β-D-ribofuranosile)pyrazine[2,3—Cl]-6H-pyridazine-5,8-dione], in data set [2], the “number … in the reduction reaction” value is 3.72. In addition, the i is recorded as 0.32 ± 0.03 mkA in data set [2] (pH 7.0), 0.33 ± 0.04 mkA in data set [2] (pH 7.2), 0.34 ± 0.03 mkA in data set [2] (pH 7.4) and 0.34 ± 0.02 mkA in data set [2] (pH 7.6). Besides, the “−E1/2” value amounted to 0.16 ± 0.02 V in data set [2] (pH 7.0), 0.19 ± 0.02 V in data set [2] (pH 7.2), 0.175 ± 0.01 V in data set [2] (pH 7.4) and 0.16 ± 0.015 V in data set [2] (pH 7.6). In data set [2], the “half-wave potential more positive at reverse stroke compared to forward stroke” value is reported as 20.0 mV.

With `O=c1[nH][nH]c(=O)c2nccnc12.[Li]` [Compound 25, lithium salt of pyrazine[2,3-d]-6H-pyridazine-5,8-dione], in data set [2], the “number … in the reduction reaction” value was 3.72. In addition, the i in data set [2] (pH 7.0) is 0.32 ± 0.03 mkA; in data set [2] (pH 7.2) it was 0.33 ± 0.04 mkA; in data set [2] (pH 7.4), 0.34 ± 0.03 mkA; in data set [2] (pH 7.6), 0.34 ± 0.02 mkA. The “−E1/2” value in data set [2] (pH 7.0) is 0.16 ± 0.02 V; in data set [2] (pH 7.2), 0.19 ± 0.02 V; in data set [2] (pH 7.4) it was 0.175 ± 0.01 V; in data set [2] (pH 7.6), 0.16 ± 0.015 V. Moreover, the “half-wave potential more positive at reverse stroke compared to forward stroke” value in data set [2] was 20.0 mV.

Turning to `Nc1ncc2c(=O)[nH][nH]c(=O)c2n1` [Compound 36, 2-amino-pyrimido[4,5-d]-6H-pyridazine-5,8-dione], in data set [2], the “number … in the reduction reaction” value is 3.5. Further, the i in data set [2] (pH 7.0) is recorded as 0.30 ± 0.05 mkA; in data set [2] (pH 7.2) it was 0.26 ± 0.02 mkA; in data set [2] (pH 7.4), 0.30 ± 0.03 mkA; in data set [2] (pH 7.6), 0.30 ± 0.02 mkA. Further, the “−E1/2” value in data set [2] (pH 7.0) came out at 0.08 ± 0.02 V; in data set [2] (pH 7.2), 0.085 ± 0.015 V; in data set [2] (pH 7.4), 0.085 ± 0.02 V; in data set [2] (pH 7.6) it was 0.09 ± 0.02 V.

On to `O=c1[nH][nH]c(=O)c2c(Br)ncnc12.[K]` [Compound 37, potassium salt of 4-bromine-pyrimido[4,5-D]-6H-pyridazine-5,8-dione], for which the “MA - drop of optical density” value is 42.9 ± 1.6 % in data set [1] (setting [3]); 41.9 ± 1.6 % in data set [1] (setting [4]); 45.9 ± 1.6% in data set [1] (setting [5]); 48.7 ± 2.1% in data set [1] (setting [6]); 43.5 ± 2.0 % in data set [1] (setting [7]); 42.0 ± 1.4 % in data set [1] (setting [8]). In addition, the “MA - drop of optical density” value in data set [1] (setting [9]) worked out at 41.6 ± 1.4 %; in data set [1] (setting [10]), 58.4 ± 1.7%; in data set [1] (setting [11]), 43.4 ± 1.8 %; in data set [1] (setting [12]), 42.4 ± 0.7 %; in data set [1] (setting [13]), 46.2 ± 2.0%; in data set [1] (setting [14]), 47.3 ± 1.7%.
